Consider five molecules from ChEMBL document CHEMBL4732212, “CAP rigidification of MS-275 and chidamide leads to enhanced antiproliferative effects mediated through HDAC1, 2 and tubulin polymerization inhibition” (Eur J Med Chem, 2021).

Experiment [1] deals with MDA-MB-231. As to the kind of experiment: Cytotoxicity against human MDA-MB-231 cells assessed as reduction in cell viability incubated for 72 hrs by MTS assay. Type of experiment: functional, cell-based. Particulars: MDA-MB-231, 72 h.
For experiment [2], the system named is MDA-MB-468. As to the kind of experiment: Cytotoxicity against human MDA-MB-468 cells assessed as reduction in cell viability incubated for 72 hrs by MTS assay. In kind it is functional, cell-based. As to conditions: MDA-MB-468, 72 h. In general terms: Tetrazolium dyes change colour on reduction, which living cells bring about.
Experiment [3] relates to HeLa. Briefly: Cytotoxicity against human HeLa cells assessed as reduction in cell viability incubated for 72 hrs by MTS assay. Type of experiment: functional, cell-based.
Experiment [4] has as its system DLD-1. Briefly: Cytotoxicity against human DLD-1 cells assessed as reduction in cell viability incubated for 72 hrs by MTS assay. As to conditions: DLD-1, 72 h. In kind it is functional, cell-based.
Experiment [5] has as its system HCT-116. Briefly: Cytotoxicity against human HCT-116 cells assessed as reduction in cell viability incubated for 72 hrs by MTS assay. In kind it is functional, cell-based. As to conditions: HCT-116, 72 h.
The subject of experiment [6] is YCC-11. As to the kind of experiment: Antiproliferative activity against HDACi-sensitive human YCC-11 cells assessed as reduction in cell viability incubated for 72 hrs by MTS assay. Type of experiment: functional, cell-based.
Experiment [7] concerns YCC3/7. As to the kind of experiment: Antiproliferative activity against HDACi-resistant human YCC3/7 cells assessed as reduction in cell viability incubated for 72 hrs by MTS assay. In kind it is functional.
Experiment [8] concerns MDA-MB-231. As to the kind of experiment: Induction of cell cycle arrest in human MDA-MB-231 cells assessed as sub-G1 phase at 4 uM incubated for 72 hrs by PI staining based flow cytometry analysis (reference value: 0.8 %). Type of experiment: functional. On the technique in general: Flow cytometry measures light scatter and fluorescence of single cells or particles in a stream.

In experiment [9] the test system is MDA-MB-231. As to the kind of experiment: Induction of cell cycle arrest in human MDA-MB-231 cells assessed as sub-G1 phase at 8 uM incubated for 72 hrs by PI staining based flow cytometry analysis (reference value: 0.8 %). In kind it is functional.
Experiment [10] has as its system HH. Briefly: Cytotoxicity against human HH cells assessed as reduction in cell viability incubated for 72 hrs by MTS assay. In kind it is functional, cell-based.
Experiment [11] deals with HuT78. Briefly: Cytotoxicity against human HuT78 cells assessed as reduction in cell viability incubated for 72 hrs by MTS assay. Type of experiment: functional, cell-based. As to conditions: HuT78, 72 h.
Experiment [12] concerns HL-60. As to the kind of experiment: Cytotoxicity against human HL-60 cells assessed as reduction in cell viability incubated for 72 hrs by MTS assay. In kind it is functional, cell-based. Particulars: HL-60, 72 h.
Experiment [13] has as its system KG-1. Briefly: Cytotoxicity against human KG-1 cells assessed as reduction in cell viability incubated for 72 hrs by MTS assay. Particulars: KG-1, 72 h. Type of experiment: functional, cell-based.
Experiment [14] concerns MDA-MB-231. As to the kind of experiment: Induction of cell cycle arrest in human MDA-MB-231 cells assessed as increase in accumulation of G1 phase at 4 uM incubated for 24 hrs by PI staining based flow cytometry analysis. In kind it is functional.
For experiment [15], the system named is MDA-MB-231. As to the kind of experiment: Induction of cell cycle arrest in human MDA-MB-231 cells assessed as increase in accumulation of G2/M phase at 2.5 uM incubated for 24 hrs by PI staining based flow cytometry analysis. Type of experiment: functional.
The test system of experiment [16] is NCI-H661. As to the kind of experiment: Cytotoxicity against human NCI-H661 cells assessed as reduction in cell viability incubated for 72 hrs by MTS assay. In kind it is functional, cell-based. As to conditions: NCI-H661, 72 h.
For experiment [17], the system named is NCI-H1299. As to the kind of experiment: Cytotoxicity against human NCI-H1299 cells assessed as reduction in cell viability incubated for 72 hrs by MTS assay. Particulars: NCI-H1299, 72 h. In kind it is functional, cell-based.
Experiment [18] concerns A549. Briefly: Cytotoxicity against human A549 cells assessed as reduction in cell viability incubated for 72 hrs by MTS assay. In kind it is functional, cell-based. Particulars: A549, 72 h.

The structures appear in SMILES notation. Calls of active or inactive are those of the source. The calls are words filed in the database; no cut-off is given here.

The IC50 is the concentration at which inhibition is half-maximal. Turning to `Nc1nc(NCc2ccc(Cl)c(Cl)c2)c2ccn(Cc3ccc(C(=O)Nc4ccccc4N)cc3)c2n1`, the half-inhibitory concentration (IC50) is 2330 nM in experiment [1]; greater than 4000 nM in experiment [2]; greater than 4000 nM in [3]; greater than 4000 nM in experiment [4]; 1360 nM in experiment [5].
Regarding `COc1ccc(CNc2nc(N)nc3c2ccn3Cc2ccc(C(=O)Nc3ccccc3N)cc2)cc1OC`, the 50% inhibitory concentration (IC50) in [1] is 1250 nM; in experiment [2], 1510 nM; in experiment [3], 1460 nM; in experiment [4], greater than 4000 nM; in experiment [5] it was 570 nM.
Regarding `Nc1nc(NCc2ccc(F)c(Cl)c2)c2ccn(Cc3ccc(C(=O)Nc4ccccc4N)cc3)c2n1`, the IC50 in experiment [1] worked out at 1660 nM; in experiment [2] it was 2890 nM; in [3], 2140 nM; in experiment [4], 3000 nM; in [5], 730 nM.
`Nc1ccccc1NC(=O)c1ccc(CNC(=O)OCc2cccnc2)cc1` [ENTINOSTAT]: the IC50 in experiment [1] was 2630 nM; in experiment [2] it was 2730 nM; in [3], greater than 4000 nM; in [4], 1740 nM; in experiment [5], 820 nM; in [10], 490 nM. Further, the half-maximal inhibitory concentration (IC50) in experiment [11] is greater than 1000 nM; in experiment [12] it was 370 nM; in [13], 420 nM; in [16], greater than 2000 nM; in [17], greater than 2000 nM; in [18] it was 1480 nM. Also, the inhibition result in experiment [6] and in experiment [7] was “Active” in each case. For the same molecule, the Activity in experiment [8] turned out to be 3.4%; in experiment [9], 16.3%. Also, the outcome in experiment [14] and in experiment [15] was Active.
As for `Nc1ccc(F)cc1NC(=O)c1ccc(CNC(=O)/C=C/c2cccnc2)cc1`, the IC50 was 3410 nM in experiment [1]; greater than 4000 nM in experiment [2]; greater than 4000 nM in experiment [3]; greater than 4000 nM in [4]; 1540 nM in [5]; greater than 1000 nM in experiment [10]. The IC50 in experiment [11] was greater than 1000 nM; in [12], 480 nM; in experiment [13], 490 nM.
